What follows are compounds tested against T1, myeloperoxidase (MPO) (Homo sapiens, UniProt P05164) (assay: MPO peroxidation assay (Amplex Red assay)). Conditions: MPO peroxidation, potency range class; read-out: Amplex Red IC50.
T1 sequence (P05164 49-745): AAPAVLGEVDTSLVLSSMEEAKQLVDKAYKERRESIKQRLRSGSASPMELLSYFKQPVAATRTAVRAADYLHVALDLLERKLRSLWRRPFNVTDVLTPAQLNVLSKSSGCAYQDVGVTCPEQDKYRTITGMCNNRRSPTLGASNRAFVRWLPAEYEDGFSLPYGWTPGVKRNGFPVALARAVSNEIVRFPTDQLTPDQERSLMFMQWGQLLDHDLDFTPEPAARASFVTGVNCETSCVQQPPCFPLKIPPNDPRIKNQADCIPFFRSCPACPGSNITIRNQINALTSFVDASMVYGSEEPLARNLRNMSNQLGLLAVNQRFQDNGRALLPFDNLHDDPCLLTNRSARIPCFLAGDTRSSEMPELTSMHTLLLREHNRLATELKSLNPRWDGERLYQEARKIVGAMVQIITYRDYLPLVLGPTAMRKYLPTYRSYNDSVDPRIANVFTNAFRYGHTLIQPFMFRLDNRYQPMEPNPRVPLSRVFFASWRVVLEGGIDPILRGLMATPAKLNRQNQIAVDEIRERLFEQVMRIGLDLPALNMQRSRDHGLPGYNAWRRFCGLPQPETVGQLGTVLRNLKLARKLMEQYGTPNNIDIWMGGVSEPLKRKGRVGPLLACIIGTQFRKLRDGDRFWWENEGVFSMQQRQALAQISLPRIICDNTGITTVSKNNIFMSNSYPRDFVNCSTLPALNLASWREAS
Type: biochemical
Summary of the method: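 MPO (200 pM) with 40 nM H2O2 was preincubated 10 min at room temperature with inhibitor in 100 mM KPi pH 7.4. A mix of Amplex Red (200 μM) and H2O2 (10 mM) was then added and resorufin fluorescence read kinetically for 15 min. Slopes over 180–540 s gave % inhibition and IC50 via a four-parameter Hill fit.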

Row | SMILES | IC50
1 | Nc1cc(OCc2cc(C(=O)NCC(F)(F)F)ccc2Cl)c2nn[nH]c2n1 [Example 190, 3-((5-amino-3H-[1,2,3]triazolo [4,5-b]pyridin-7-yloxy)methyl)-4-chloro-N-(2,2,2-trifluoroethyl) benzamide] | 1 to 100 nM
2 | CC(O)CNC(=O)c1ccc(Cl)c(COc2cc(N)nc3[nH]nnc23)c1 (stereo not shown) [Example 191, 3-((5-amino-3H-[1,2,3]triazolo [4,5-b]pyridin-7-yloxy)methyl)-4-chloro-N-(2-hydroxypropyl) benzamide] | 1 to 100 nM
3 | Nc1cc(OCc2cc(C(=O)NCc3ccc[nH]c3=O)ccc2Cl)c2nn[nH]c2n1 [Example 192, 3-((5-amino-3H-[1,2,3]triazolo [4,5-b]pyridin-7-yloxy)methyl)-4-chloro-N-((2-oxo-1,2-dihydropyridin-3-yl)methyl) benzamide] | 1 to 100 nM
4 | Nc1cc(OCc2cc(C(=O)NC3CCS(=O)(=O)C3)ccc2Cl)c2nn[nH]c2n1 (stereo not shown) [Example 193, 3-((5-amino-3H-[1,2,3]triazolo [4,5-b]pyridin-7-yloxy)methyl)-4-chloro-N-(1,1-dioxidotetrahydrothien-3-yl)benzamide] | 101 to 999 nM
5 | COC(=O)c1ccc(COc2cc(N)nc3[nH]nnc23)c(Cl)c1 [Example 194, Methyl 4-((5-amino-3H-[1,2,3]triazolo[4,5-b]pyridin-7-yloxy)methyl)-3-chlorobenzoate] | 1 to 100 nM
6 | Nc1cc(OCc2ccc(C(=O)NCc3ccccc3)cc2Cl)c2nn[nH]c2n1 [Example 196, 4-((5-amino-3H-[1,2,3]triazolo[4,5-b]pyridin-7-yloxy)methyl)-N-benzyl-3-chlorobenzamide] | 1 to 100 nM
7 | Nc1cc(OCc2ccc(C(=O)NC3CC3)cc2Cl)c2nn[nH]c2n1 [Example 197, 4-((5-amino-3H-[1,2,3]triazolo[4,5-b]pyridin-7-yloxy)methyl)-3-chloro-N-cyclopropylbenzamide] | 101 to 999 nM
8 | Nc1cc(OCc2ccc(C(=O)NCC3CCCCC3)cc2Cl)c2nn[nH]c2n1 [Example 198, 4-((5-amino-3H-[1,2,3]triazolo[4,5-b]pyridin-7-yloxy)methyl)-3-chloro-N-(cyclohexylmethyl)benzamide] | 101 to 999 nM
9 | Nc1cc(OCc2ccc(C(=O)N3CCC[C@H]3CO)cc2Cl)c2nn[nH]c2n1 [Example 199, (S)-(4-((5-amino-3H-[1,2,3]triazolo [4,5-b]pyridin-7-yloxy)methyl)-3-chlorophenyl)(2-(hydroxymethyl)pyrrolidin-1-yl)methanone] | 101 to 999 nM
10 | CC(NC(=O)c1ccc(COc2cc(N)nc3[nH]nnc23)c(Cl)c1)c1ccccc1 (stereo not shown) [Example 201, 4-((5-amino-3H-[1,2,3]triazolo[4,5-b]pyridin-7-yloxy)methyl)-3-chloro-N-(1-phenylethyl)benzamide] | 1 to 100 nM
11 | CN(C)CCNC(=O)c1ccc(COc2cc(N)nc3[nH]nnc23)c(Cl)c1 [Example 202, 4-((5-amino-3H-[1,2,3]triazolo[4,5-b]pyridin-7-yloxy)methyl)-3-chloro-N-(2-(dimethylamino)ethyl) benzamide] | 1 to 100 nM
12 | CN(C(=O)c1ccc(COc2cc(N)nc3[nH]nnc23)c(Cl)c1)c1ccccc1 [Example 203, 4-((5-amino-3H-[1,2,3]triazolo[4,5-b]pyridin-7-yloxy)methyl)-3-chloro-N-methyl-N-phenylbenzamide] | 1 to 100 nM
13 | CN(Cc1ccccc1)C(=O)c1ccc(COc2cc(N)nc3[nH]nnc23)c(Cl)c1 [Example 204, 4-((5-amino-3H-[1,2,3]triazolo[4,5-b]pyridin-7-yloxy)methyl)-N-benzyl-3-chloro-N-methylbenzamide] | 1 to 100 nM
14 | Nc1cc(OCc2ccc(C(=O)NC3CCC3)cc2Cl)c2nn[nH]c2n1 [Example 205, 4-((5-amino-3H-[1,2,3]triazolo[4,5-b]pyridin-7-yloxy)methyl)-3-chloro-N-cyclobutylbenzamide] | 1 to 100 nM
15 | Nc1cc(OCc2ccc(C(=O)N3CCCCC3c3ccccc3)cc2Cl)c2nn[nH]c2n1 (stereo not shown) [Example 206] | 101 to 999 nM
16 | Cc1cc(CNC(=O)c2ccc(COc3cc(N)nc4[nH]nnc34)c(Cl)c2)n(C)n1 [Example 207, 4-((5-amino-3H-[1,2,3]triazolo[4,5-b]pyridin-7-yloxy)methyl)-3-chloro-N-((1,3-dimethyl-1H-pyrazol-5-yl)methyl)benzamide] | 1 to 100 nM
17 | Nc1cc(OCc2ccc(C(=O)N3CCCC(Oc4ccccc4)C3)cc2Cl)c2nn[nH]c2n1 (stereo not shown) [Example 209] | 1 to 100 nM
18 | Nc1cc(OCc2ccc(C(=O)N3CCC(CO)C3)cc2Cl)c2nn[nH]c2n1 (stereo not shown) [Example 210] | 101 to 999 nM
19 | CC(=O)N[C@H]1CCN(C(=O)c2ccc(COc3cc(N)nc4[nH]nnc34)c(Cl)c2)C1 [Example 212, (S)-N-(1-(4-((5-amino-3H-[1,2,3]triazolo[4,5-b]pyridin-7-yloxy)methyl)-3-chlorobenzoyl)pyrrolidin-3-yl)acetamide] | 101 to 999 nM
20 | Nc1cc(OCc2ccc(C(=O)Nc3ccccc3)cc2Cl)c2nn[nH]c2n1 [Example 213, 4-((5-amino-3H-[1,2,3]triazolo[4,5-b]pyridin-7-yloxy)methyl)-3-chloro-N-phenylbenzamide] | 1 to 100 nM
21 | Nc1cc(OCc2ccc(C(=O)NCc3ccccc3Cl)cc2Cl)c2nn[nH]c2n1 [Example 214, 4-((5-amino-3H-[1,2,3]triazolo[4,5-b]pyridin-7-yloxy)methyl)-3-chloro-N-(2-chlorobenzyl)benzamide] | 1 to 100 nM
22 | COc1ccccc1CNC(=O)c1ccc(COc2cc(N)nc3[nH]nnc23)c(Cl)c1 [Example 215, 4-((5-amino-3H-[1,2,3]triazolo[4,5-b]pyridin-7-yloxy)methyl)-3-chloro-N-(2-methoxybenzyl)benzamide] | 1 to 100 nM
23 | CNC(=O)CNC(=O)c1ccc(COc2cc(N)nc3[nH]nnc23)c(Cl)c1 [Example 218, 4-((5-amino-3H-[1,2,3]triazolo[4,5-b]pyridin-7-yloxy)methyl)-3-chloro-N-(2-(methylamino)-2-oxoethyl) benzamide] | 101 to 999 nM
24 | Nc1cc(OCc2ccc(C(=O)NCc3cccnc3)cc2Cl)c2nn[nH]c2n1 [Example 219, 4-((5-amino-3H-[1,2,3]triazolo[4,5-b]pyridin-7-yloxy)methyl)-3-chloro-N-(pyridin-3-ylmethyl)benzamide] | 1 to 100 nM
25 | NC(=O)C1CCN(C(=O)c2ccc(COc3cc(N)nc4[nH]nnc34)c(Cl)c2)CC1 [Example 220, 1-(4-((5-amino-3H-[1,2,3]triazolo [4,5-b]pyridin-7-yloxy)methyl)-3-chlorobenzoyl)piperidine-4-carboxamide] | 101 to 999 nM
26 | Nc1cc(OCc2ccc(C(=O)NC3CCCCC3)cc2Cl)c2nn[nH]c2n1 [Example 221, 4-((5-amino-3H-[1,2,3]triazolo[4,5-b]pyridin-7-yloxy)methyl)-3-chloro-N-cyclohexylbenzamide] | 1 to 100 nM
27 | CN(C)CCN(C)C(=O)c1ccc(COc2cc(N)nc3[nH]nnc23)c(Cl)c1 [Example 222, 4-((5-amino-3H-[1,2,3]triazolo[4,5-b]pyridin-7-yloxy)methyl)-3-chloro-N-(2-(dimethylamino)ethyl)-N-methylbenzamide] | 101 to 999 nM
28 | CN(C(=O)c1ccc(COc2cc(N)nc3[nH]nnc23)c(Cl)c1)C1CCCCC1 [Example 223, 4-((5-amino-3H-[1,2,3]triazolo[4,5-b]pyridin-7-yloxy)methyl)-3-chloro-N-cyclohexyl-N-methylbenzamide] | 101 to 999 nM

— patent US10316035B2, “Triazolopyridine inhibitors of myeloperoxidase” (BRISTOL-MYERS SQUIBB COMPANY, priority 2015, dated 2019)
